Reference: patent publication EP4722208A1, “NOVEL BENZAMIDE DERIVATIVE COMPOUND AND PHARMACEUTICAL COMPOSITION COMPRISING SAME” (Samjin Pharmaceutical Co., Ltd., priority 2023, dated 2024)
Where a name gives a salt, the structure may show the parent alone.

test system: HCT116 colorectal cancer cell lines; assay: Tumor cytotoxicity assay (MTT); assay type: cell-based; conditions: Homo sapiens, HCT-116, HCT116 cells, 72 hours treatment, 0.1 nM to 1000 nM
Protocol: The anticancer efficacy of the compound of the present invention was evaluated using the MTT analysis method in HCT116 colorectal cancer cell lines. The cells were incubated using DMEM medium containing 10% FBS. The cells were distributed in a 96-well plate at a density of 2,500 cells per well, the HCT116 cells were incubated for 24 hours, and then treated with a drug using a serum free DMEM. First, a compound was prepared in 100% dimethyl sulfoxide (DMSO) at a concentration of 0.02 µM to 200 µM, diluted in the culture medium so that the final concentration of DMSO might reach 0.5%, and treated with the drug so that the final concentration of the compound might range from 0.1 nM to 1000 nM. After that, they were further incubated for 72 hours at 37°C and CO2 5% and treated with MTT (Sigma-Aldrich, M2128) to confirm cytotoxicity. Formazan produced from reduction by enzymes in the mitochondria of living cells was measured using Spark® Multimode Microplate Reader TECAN equipment. A cell viability (%) was relatively determined by subtracting a reference 650 nm optical density (O.D.) from 570 nm O.D., in which the 0.5% DMSO-treated control was set as a standard of 100%. […]

SMILES	CC50
Cn1ccc(CS(=O)(=O)c2ccc(C(=O)NCc3ccn4ccnc4c3)cc2C#Cc2ccc(N)c(F)c2)n1 [compound 241, 3-((4-amino-3-fluorophenyl)ethynyl)-N-(imidazo[1,2-a]pyridin-7-ylmethyl)-4-(((1-methyl-1H-pyrazol-3-yl)methyl)sulfonyl)benzamide]	≤ 30 nM
O=C(NCc1ccn2ccnc2c1)c1ccc(S(=O)(=O)Cc2cc[nH]n2)c(C#Cc2ccc(F)cc2)c1 [compound 234, 4-(((1H-pyrazol-3-yl)methyl)sulfonyl)-3-((4-fluorophenyl)ethynyl)-N-(imidazo[1,2-a]pyridin-7-ylmethyl)benzamide]	≤ 30 nM
Cn1ccc(CS(=O)(=O)c2ccc(C(=O)NCc3ccn4ccnc4c3)cc2C#Cc2cccc(CN)c2)n1 [compound 232, 3-((3-(aminomethyl)phenyl)ethynyl)-N-(imidazo[1,2-a]pyridin-7-ylmethyl)-4-(((1-methyl-1H-pyrazol-3-yl)methyl)sulfonyl)benzamide]	≤ 30 nM
Cn1ccc(CS(=O)(=O)c2ccc(C(=O)NCc3cnc4nccn4c3)cc2C#Cc2ccc(F)cc2)n1 [compound 238, 3-((4-fluorophenyl)ethynyl)-N-(imidazo[1,2-a]pyrimidin-6-ylmethyl)-4-(((1-methyl-1H-pyrazol-3-yl)methyl)sulfonyl)benzamide]	100 to 1000 nM

biological target: T1, Recombinant NAMPT protein (Homo sapiens, UniProt P43490); assay: NAMPT enzyme inhibition assay (BPS bioscience NAMPT Inhibitor Screening Assay Kit, fluorescence); assay type: biochemical; conditions: 30 min pre-incubation, 2 h at 30°C, compound 1000 nM to 3 nM, n=2
T1 construct: purchased BPS bioscience # 7176-1
Protocol: The NAMPT enzyme activity inhibition ability of the compound of the present invention was evaluated using the NAMPT Inhibitor Screening Assay Kit (# 7176-1) from BPS bioscience. Recombinant NAMPT protein was added to each well of a black 96-well plate, and dilution buffer was added to a blank well instead of NAMPT protein. A 5 x concentrated compound solution was added and pre-incubated at room temperature (approximately 22°C) for 30 minutes before the start of the reaction so that the compound and protein might bind before the enzyme reaction. At this time, the concentration of NAMPT protein was adjusted and used according to the enzyme activity of each protein lot within the final concentration range of 4-10 ng/µl, and the test compound was serially diluted at a ratio of 1:3 from 1000 nM to 3 nM, and experiments were conducted with n=2 for about seven concentrations. A 2 x concentrated test buffer containing ATP (final concentration of 20 µM), nicotinamide (final concentration of 20 µM), phosphoribosyl pyrophosphate (PRPP, final concentration of 40 µM), and ethanol (final concentration of 1.5%) was added, and the plate was incubated at 30°C for two hours, after which the fluorescence of a resulting reaction product was measured with excitation of 340 nm and emission of 460 nm. The NAMPT enzyme activity (%) was calculated by subtracting the measurement value of the blank well without NAMPT protein from the measurement value of all wells, and then taking the measurement value of the control well without the compound as 100%.

T1 sequence (P43490 whole entry): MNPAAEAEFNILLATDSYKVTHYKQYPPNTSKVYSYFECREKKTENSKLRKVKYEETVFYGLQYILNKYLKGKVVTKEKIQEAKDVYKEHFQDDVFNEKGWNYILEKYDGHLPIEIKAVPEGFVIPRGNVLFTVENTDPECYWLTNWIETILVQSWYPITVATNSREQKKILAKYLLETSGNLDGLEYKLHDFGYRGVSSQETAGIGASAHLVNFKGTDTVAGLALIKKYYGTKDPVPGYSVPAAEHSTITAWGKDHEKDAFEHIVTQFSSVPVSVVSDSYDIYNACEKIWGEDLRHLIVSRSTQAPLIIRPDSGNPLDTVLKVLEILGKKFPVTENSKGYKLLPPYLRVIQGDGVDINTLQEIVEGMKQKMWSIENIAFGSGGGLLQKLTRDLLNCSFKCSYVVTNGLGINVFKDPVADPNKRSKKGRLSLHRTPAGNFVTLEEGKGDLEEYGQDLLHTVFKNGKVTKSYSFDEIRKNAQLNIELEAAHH

SMILES	IC50
CN(C)c1ccc(C#Cc2cc(C(=O)NCCCc3cn[nH]c3)ccc2S(=O)(=O)Cc2ccn(C)n2)cc1 [compound 244, N-(3-(1H-pyrazol-4-yl)propyl)-3-((4-(dimethylamino)phenyl)ethynyl)-4-(((1-methyl-1H-pyrazol-3-yl)methyl)sulfonyl)benzamide]	≥ 1000 nM
Cn1ccc(CS(=O)(=O)c2ccc(C(=O)NCc3ccn4ccnc4c3)cc2C#Cc2ccc(N)c(F)c2)n1 [compound 241, 3-((4-amino-3-fluorophenyl)ethynyl)-N-(imidazo[1,2-a]pyridin-7-ylmethyl)-4-(((1-methyl-1H-pyrazol-3-yl)methyl)sulfonyl)benzamide]	< 500 nM
Nc1cccc(CS(=O)(=O)c2ccc(C(=O)NCc3ccn4ccnc4c3)cc2C#Cc2ccc(F)cc2)c1 [compound 147]	< 500 nM
Cn1ccc(CS(=O)(=O)c2ccc(C(=O)NCCCc3cn[nH]c3)cc2C#Cc2ccc(OC(F)(F)F)cc2)n1 [compound 236, N-(3-(1H-pyrazol-4-yl)propyl)-4-(((1-methyl-1H-pyrazol-3-yl)methyl)sulfonyl)-3-((4-(trifluoromethoxy)phenyl)ethynyl)benzamide]	≥ 1000 nM
Cn1ccc(CS(=O)(=O)c2ccc(C(=O)NCCCc3cn[nH]c3)cc2C#Cc2ccncc2)n1 [compound 237, N-(3-(1H-pyrazol-4-yl)propyl)-4-(((1-methyl-1H-pyrazol-3-yl)methyl)sulfonyl)-3-(pyridin-4-ylethynyl)benzamide]	< 500 nM
CNS(=O)(=O)c1ccc(C(=O)NCCCc2cn[nH]c2)cc1C#Cc1ccc(F)cc1 [compound 6, N-(3-(1H-pyrazol-4-yl)propyl)-3-((4-fluorophenyl)ethynyl)-4-(N-methylsulfamoyl)benzamide]	≥ 1000 nM
Cn1ccc(CS(=O)(=O)c2ccc(C(=O)NCCCc3cn[nH]c3)cc2C#Cc2ccc(C3CCNCC3)cc2)n1 [compound 245, N-(3-(1H-pyrazol-4-yl)propyl)-4-(((1-methyl-1H-pyrazol-3-yl)methyl)sulfonyl)-3-((4-(piperidin-4-yl)phenyl)ethynyl)benzamide hydrochloride]	< 500 nM
Cn1ccc(CS(=O)(=O)c2ccc(C(=O)NCCc3c[nH]c4ccncc34)cc2C#Cc2ccc(F)cc2)n1 [compound 3, N-(2-(1H-pyrrolo[3,2-c]pyridin-3-yl)ethyl)-3-((4-fluorophenyl)ethynyl)-4-(((1-methyl-1H-pyrazol-3-yl)methyl)sulfonyl)benzamide]	< 500 nM
O=C(NCc1ccn2ccnc2c1)c1ccc(S(=O)(=O)Cc2cc[nH]n2)c(C#Cc2ccc(F)cc2)c1 [compound 234, 4-(((1H-pyrazol-3-yl)methyl)sulfonyl)-3-((4-fluorophenyl)ethynyl)-N-(imidazo[1,2-a]pyridin-7-ylmethyl)benzamide]	< 500 nM
Cn1ccc(CS(=O)(=O)c2ccc(C(=O)NCc3ccn4ccnc4c3)cc2C#Cc2cccc(CN)c2)n1 [compound 232, 3-((3-(aminomethyl)phenyl)ethynyl)-N-(imidazo[1,2-a]pyridin-7-ylmethyl)-4-(((1-methyl-1H-pyrazol-3-yl)methyl)sulfonyl)benzamide]	< 500 nM
O=C(NCCCc1cn[nH]c1)c1ccc(S(=O)(=O)Cc2ccn(-c3ccc(C(F)(F)F)cc3)n2)c(C#Cc2ccc(F)cc2)c1 [compound 4, N-(3-(1H-pyrazol-4-yl)propyl)-3-((4-fluorophenyl)ethynyl)-4-(((1-(4-(trifluoromethyl)phenyl)-1H-pyrazol-3-yl)methyl)sulfonyl)benzamide]	500 to 1000 nM
COc1cc(C#Cc2cc(C(=O)NCCCc3cn[nH]c3)ccc2S(=O)(=O)Cc2ccn(C)n2)ccc1C [compound 235, N-(3-(1H-pyrazol-4-yl)propyl)-3-((3-methoxy-4-methylphenyl)ethynyl)-4-(((1-methyl-1H-pyrazol-3-yl)methyl)sulfonyl)benzamide]	< 500 nM
Cn1ccc(CS(=O)(=O)c2ccc(C(=O)NCCc3ccc([N+](=O)[O-])nc3)cc2C#Cc2ccc(F)cc2)n1 [compound 7, 3-((4-fluorophenyl)ethynyl)-4-(((1-methyl-1H-pyrazol-3-yl)methyl)sulfonyl)-N-(2-(6-nitropyridin-3-yl)ethyl)benzamide]	≥ 1000 nM
O=C(NCCCc1cn[nH]c1)c1ccc(S(=O)(=O)Cc2cccc(C(F)(F)F)c2)c(C#Cc2ccc(F)cc2)c1 [compound 9, N-(3-(1H-pyrazol-4-yl)propyl)-3-((4-fluorophenyl)ethynyl)-4-((3-(trifluoromethyl)benzyl)sulfonyl)benzamide]	500 to 1000 nM
Cn1ccc(CS(=O)(=O)c2ccc(C(=O)NCc3cnc4nccn4c3)cc2C#Cc2ccc(F)cc2)n1 [compound 238, 3-((4-fluorophenyl)ethynyl)-N-(imidazo[1,2-a]pyrimidin-6-ylmethyl)-4-(((1-methyl-1H-pyrazol-3-yl)methyl)sulfonyl)benzamide]	< 500 nM
Cc1cccc(CS(=O)(=O)c2ccc(C(=O)NCCCc3cn[nH]c3)cc2C#Cc2ccc(F)cc2)c1C [compound 5, N-(3-(1H-pyrazol-4-yl)propyl)-4-((2,3-dimethylbenzyl)sulfonyl)-3-((4-fluorophenyl)ethynyl)benzamide]	≥ 1000 nM

More lines, now with the values ahead:

IC50	SMILES
< 500 nM	Cn1ccc(CNS(=O)(=O)c2ccc(C(=O)NCc3ccn4ccnc4c3)cc2C#Cc2ccc(F)cc2)n1 [compound 115, 3-((4-fluorophenyl)ethynyl)-N-(imidazo[1,2-a]pyridin-7-ylmethyl)-4-(N-((1-methyl-1H-pyrazol-3-yl)methyl)sulfamoyl)benzamide]
< 500 nM	Nc1ccc(-n2ccc(CS(=O)(=O)c3ccc(C(=O)NCc4ccn5ccnc5c4)cc3C#Cc3ccc(F)cc3)n2)cc1 [compound 233, 4-(((1-(4-aminophenyl)-1H-pyrazol-3-yl)methyl)sulfonyl)-3-((4-fluorophenyl)ethynyl)-N-(imidazo[1,2-a]pyridin-7-ylmethyl)benzamide]
< 500 nM	Cn1ccc(CS(=O)(=O)c2ccc(C(=O)NCc3ccc4nccn4c3)cc2C#Cc2ccc(N)cc2)n1 [compound 240, 3-((4-aminophenyl)ethynyl)-N-(imidazo[1,2-a]pyridin-6-ylmethyl)-4-(((1-methyl-1H-pyrazol-3-yl)methyl)sulfonyl)benzamide]
≥ 1000 nM	Cn1ccc(CS(=O)(=O)c2ccc(C(=O)NCc3ccn4ccnc4c3)cc2C#Cc2ccc(C(=O)NCCN3CCNCC3)cc2)n1 [compound 193, N-(imidazo[1,2-a]pyridin-7-ylmethyl)-4-(((1-methyl-1H-pyrazol-3-yl)methyl)sulfonyl)-3-((4-((2-(piperazin-1-yl)ethyl)carbamoyl)phenyl)ethynyl)benzamide]
≥ 1000 nM	Cn1ccc(CS(=O)(=O)c2ccc(C(=O)NCCc3ccc(N)nc3)cc2C#Cc2ccc(F)cc2)n1 [compound 8, N-(2-(6-aminopyridin-3-yl)ethyl)-3-((4-fluorophenyl)ethynyl)-4-(((1-methyl-1H-pyrazol-3-yl)methyl)sulfonyl)benzamide]
< 500 nM	Cn1ccc(CS(=O)(=O)c2ccc(C(=O)NCc3ccn4ccnc4c3)cc2C#Cc2ccc3c(c2)CCNC3)n1 [compound 231, N-(imidazo[1,2-a]pyridin-7-ylmethyl)-4-(((1-methyl-1H-pyrazol-3-yl)methyl)sulfonyl)-3-((1,2,3,4-tetrahydroisoquinolin-6-yl)ethynyl)benzamide]
500 to 1000 nM	Cn1ccc(CS(=O)(=O)c2ccc(C(=O)NCc3ccn4ccnc4c3)cc2C#Cc2ccc(C(=O)NCCN3CCCCC3)cc2)n1 [compound 242, N-(imidazo[1,2-a]pyridin-7-ylmethyl)-4-(((1-methyl-1H-pyrazol-3-yl)methyl)sulfonyl)-3-((4-((2-(piperidin-1-yl)ethyl)carbamoyl)phenyl)ethynyl)benzamide]
< 500 nM	Cn1ccc(CS(=O)(=O)c2ccc(C(=O)NCc3ccn4ccnc4c3)cc2C#Cc2ccc(N)nc2)n1 [compound 243, 3-((6-aminopyridin-3-yl)ethynyl)-N-(imidazo[1,2-a]pyridin-7-ylmethyl)-4-(((1-methyl-1H-pyrazol-3-yl)methyl)sulfonyl)benzamide]
≥ 1000 nM	O=C(NCc1ccn2ccnc2c1)c1ccc(S(=O)(=O)Cc2ccn(C3CCNCC3)n2)c(C#Cc2ccc(F)cc2)c1 [compound 122, 3-((4-fluorophenyl)ethynyl)-N-(imidazo[1,2-a]pyridin-7-ylmethyl)-4-(((1-(piperidin-4-yl)-1H-pyrazol-3-yl)methyl)sulfonyl)benzamide]
